Among the data in paper PMC5474226 (Cancer research, 2017) are response rate and Ki values, retold here.

The test system of assay [1] is advanced non-small cell lung cancer. Conditions: ref [8], cited from earlier work.
Assay [2] addresses granzyme B (activated from pro-granzyme B) (UniProt P04187). The experiment in a line: enzyme inhibition assay.
The next assay deals with granzyme B. Particulars: tetrapeptide with C-terminus aspartate modified to aldehyde; ref [21],[22]; cited from earlier work.

Where two headings read alike, the source gives them in different places.

The Ki is a dissociation constant, usually derived from enzyme kinetics or from competition with a known ligand.

UniProt P04187, sequence (P04187 21-247): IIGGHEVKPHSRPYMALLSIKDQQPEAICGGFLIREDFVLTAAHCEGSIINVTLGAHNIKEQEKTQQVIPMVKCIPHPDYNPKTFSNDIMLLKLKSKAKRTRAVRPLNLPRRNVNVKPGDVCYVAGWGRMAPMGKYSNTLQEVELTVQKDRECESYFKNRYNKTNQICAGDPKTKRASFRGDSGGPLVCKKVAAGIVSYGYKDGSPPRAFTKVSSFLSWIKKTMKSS

For pembrolizumab, the results for the response rate in assay [1] (patients with >1% positive PD-L1 staining) and in assay [1] (tumors with greater than 50% positive staining for PD-L1) were 18% and 30%, respectively. Consider “NOTA–β-Ala–Gly–Gly–Ile–Glu–Phe–Asp–CHO (NOTA-GZP), gallium-labelled (peptide)”, for which the Ki in assay [2] came to 47 nM.

Take Ile-Glu-Phe-Asp: the Ki at granzyme B was 80 nM.
